For eight compounds, GI50 and TGI results are on record in PubChem BioAssay (NCI).

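Five compound concentrations were applied to cells in 96-well plates for 48 hours; endpoints were derived by simple linear interpolation of the resulting dose-response curve. GI50 = concentration required for 50% inhibition of growth. At the TGI there is no net growth.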

Test in all cases: NCI tumour cell line growth inhibition, 48 h
Experiment [1] deals with IGROV1 ovarian.
Experiment [2] relates to LOX IMVI melanoma.
Experiment [3] concerns MALME-3M melanoma.
Experiment [4] relates to MOLT-4 leukemia.
For experiment [5], the system named is NCI-H23 lung.
In experiment [6] the test system is RPMI-8226 leukemia.
In experiment [7] the test system is RXF 393 renal.
Experiment [8] has as its system SF-268 CNS.
For experiment [9], the system named is SW-620 colon.
Experiment [10] relates to UO-31 renal.

Turning to `CN(Cc1cnc2nc(N)nc(N)c2n1)c1c(Cl)cc(C(=O)NC(CCC(=O)O)C(=O)O)cc1Br` (stereo not drawn), the GI50 in experiment [1] is below 0.01 µM; in experiment [2] it was below 0.01 µM; in experiment [3], 0.0322 µM; in [4], below 0.01 µM; in experiment [5] it was 0.016 µM; in experiment [6], below 0.01 µM. The GI50 in experiment [7] was 0.345 µM; in experiment [8], below 0.01 µM; in experiment [9], below 0.01 µM; in experiment [10], below 0.01 µM. For the same compound, the TGI in experiment [1] was 18.2 µM; in [2] it was above 100 µM; in experiment [3] it was above 100 µM; in experiment [4], above 100 µM; in experiment [5] it was above 100 µM; in [6], above 100 µM. The TGI in experiment [7], in experiment [8] and in experiment [9] was above 100 µM throughout.

Consider `Nc1nc2c([nH]1)c1[nH]c3ccccc3c1c1[nH]c3ccccc3c21`, for which the GI50 in [1] was 10.2 µM; in experiment [2], 16 µM; in experiment [3] it was 1.86 µM; in [4], 1.89 µM; in [5], 13.7 µM; in experiment [6] it was 9.83 µM. In addition, the GI50 was 6.08 µM in experiment [7], 16.2 µM in experiment [8], 3.31 µM in [9] and 11 µM in experiment [10]. The TGI in experiment [1] amounted to 22.6 µM; in [2] it was 32.5 µM; in [3], 4.45 µM; in experiment [4], 6.16 µM; in [5] it was 29.5 µM; in experiment [6] it was 28.3 µM. In addition, the TGI in experiment [7] was found to be 19.4 µM; in [8], 32.6 µM; in experiment [9], 12.4 µM; in [10], 22.9 µM.

Consider `N#CC(C#N)=C/C=C/c1ccccc1[N+](=O)[O-]`, for which the TGI in experiment [1] was above 10 µM; in experiment [2] it was 7.09 µM; in experiment [3], above 10 µM; in [4], above 10 µM; in experiment [5], above 10 µM; in experiment [6], above 10 µM. Also, the TGI in experiment [7] was 9.53 µM; in experiment [8], above 10 µM; in experiment [9] it was above 10 µM; in experiment [10], above 10 µM.

Turning to `COc1cc(OC)c(OC)cc1/C=C\c1ccnc2ccccc12`, the TGI in [1] is above 72.9 µM; in experiment [2], above 42.5 µM; in [3], above 100 µM; in experiment [4], above 90.2 µM; in experiment [5], 23.5 µM; in [6], 99.1 µM. Besides, the TGI in experiment [7] is 5.28 µM; in [8] it was above 86.2 µM; in experiment [9] it was above 63.1 µM; in experiment [10] it was above 80.6 µM.

Turning to `O=C(Nc1c(Cl)cc([N+](=O)[O-])cc1Cl)C(=O)C(C(=O)c1ccncc1)C1OC(=O)c2ccccc21` (stereo not drawn), the TGI in [1], in [2], in experiment [3], in [4], in experiment [5] and in experiment [6] was above 100 µM in each case. Besides, the TGI in experiment [7], in experiment [8], in experiment [9] and in experiment [10] was above 100 µM each time.

`Cc1c(C(=O)/C=C/c2ccc3c(c2)OCO3)[n+](=O)c2ccccc2n1[O-]`: the TGI was above 100 µM in [1]; 66.3 µM in [2]; above 100 µM in experiment [3]; 73.9 µM in [4]; 42.4 µM in experiment [5]; 69.3 µM in [6]. Besides, the TGI in experiment [7] was 54.1 µM; in [8], above 100 µM; in experiment [9] it was above 100 µM; in [10], 97.4 µM.

`COc1ccc(-c2nc3sccn3c2/C=C/C(=O)c2cc(OC)c(OC)c(OC)c2)cc1`: the GI50 in experiment [1] was 1.24 µM; in [2], 2.11 µM; in experiment [3], 4.39 µM; in experiment [4], 2.24 µM; in [5], 2.49 µM; in [6], 2.24 µM. Further, the GI50 is 3.09 µM in experiment [7], 2.76 µM in experiment [8], 3.01 µM in experiment [9] and 2.12 µM in [10]. In addition, the TGI in experiment [2] is 6.59 µM; in experiment [3], above 100 µM; in [4] it was 23.7 µM; in experiment [5] it was above 28.7 µM; in experiment [6] it was 7.56 µM; in experiment [7], above 100 µM. Also, the TGI in experiment [8] was above 100 µM; in experiment [9], above 100 µM; in experiment [10] it was above 25.5 µM.

Consider `CN1CCC(C(=O)Nc2n[nH]c3nnc(-c4ccccc4)cc23)CC1`, for which the GI50 was above 25 µM in experiment [1]; 20.3 µM in experiment [2]; above 25 µM in experiment [3]; above 25 µM in experiment [4]; above 25 µM in experiment [5]; above 25 µM in experiment [6]. The GI50 is 12.3 µM in experiment [7], above 25 µM in experiment [8], above 25 µM in experiment [9] and above 25 µM in experiment [10]. For the same compound, the TGI in experiment [1], in [2], in experiment [3], in experiment [4], in experiment [5] and in experiment [6] was above 25 µM throughout. Moreover, the TGI in [7], in experiment [8], in [9] and in experiment [10] was above 25 µM each time.
